Experiments:
RORγ-LBD = biological target: T1, RORγ-LBD (Homo sapiens, UniProt P51449); assay: RORγ-Ligand Binding Domain (LBD) TR-FRET Assay; assay type: biochemical;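 on TR-FRET Assay Max Response: 665/615 nm ratio relative to signal without ursolic acid or compound set at 100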
T1 construct: made in house; host or cells: SF9 cells (baculovirus)
T1 sequence (P51449 269-508 limits assumed): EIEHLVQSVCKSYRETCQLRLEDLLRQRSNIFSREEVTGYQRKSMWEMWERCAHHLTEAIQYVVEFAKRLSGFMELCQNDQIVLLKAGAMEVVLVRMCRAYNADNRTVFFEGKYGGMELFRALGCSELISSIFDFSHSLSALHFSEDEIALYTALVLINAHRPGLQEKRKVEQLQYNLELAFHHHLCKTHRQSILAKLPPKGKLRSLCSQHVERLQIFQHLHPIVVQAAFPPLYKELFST
Summary of the method: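 Lysate from SF9 cells expressing His-RORγ-LBD is diluted to about 3 nM final in 50 mM Tris pH 7.0 assay buffer. A biotin-tagged SRC1 LXXLL peptide goes in at 200 nM final, plus ursolic acid at 2 μM final. Test compounds carry 1% DMSO final; signal read by TR-FRET.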

Gal4-RORγ-LBD = biological target: T2, Gal4-RORγ-LBD (Homo sapiens, UniProt P51449); assay: Gal4-RORγ Luciferase Reporter Assay in HEK-293T Cells; assay type: cell-based; details: HEK-293 cells
T2 construct: expressed in transfected cells; host or cells: HEK-293 cells (pcDNA3.1neo plasmid)
T2 sequence (P51449 269-508 limits assumed): T1 sequence (P51449 269-508 limits assumed)
Summary of the method: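 In transfected HEK-293 cells (Gal4-RORγ-LBD, Gal4-luciferase), test agents with 2 μM ursolic acid were incubated overnight at 37 °C before luminescent detection. Values are relative to the ursolic-acid-free, compound-free signal (100).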

[1] = luciferase reporter, with 2 μM ursolic acid

EC50 (RORγ-LBD) [nM]	EC50 (Gal4-RORγ-LBD; [1]) [nM]	EC50 (Gal4-RORγ-LBD; 2 μM ursolic acid) [nM]	Structure (SMILES)	TR-FRET Assay Max Response (RORγ-LBD)	Gal4-RORγ Assay Max Response (Gal4-RORγ-LBD; [1])	Gal4-RORγ Assay Max Response (Gal4-RORγ-LBD; 2 μM ursolic acid)
< 500	< 500		O=C(O)C1CCN(C(=O)CC[C@H]2CN(S(=O)(=O)c3cccc(C(F)(F)F)c3)c3cc(-c4cccc(C(F)(F)F)n4)cc(F)c3O2)CC1 [Compound 23E, (S)-1-(3-(8-fluoro-4-((3-(trifluoromethyl)phenyl)sulfonyl)-6-(6-(trifluoromethyl)pyridin-2-yl)-3,4-dihydro-2H-benzo[b][1,4]oxazin-2-yl)propanoyl)piperidine-4-carboxylic acid]	**** (The symbol “****” indicates a value greater than 200)	** (The symbol “**” indicates a value in the range of greater than 90 to 150)	
< 500		< 500	O=C(O)C1(C[C@H]2CN(S(=O)(=O)c3cccc(C(F)(F)F)c3)c3cc(-c4cccc(C(F)(F)F)c4)ccc3O2)CCOCC1 [Compound 78H, (S)-4-((6-(3-(trifluoromethyl)-phenyl)-4-((3-(trifluoromethyl)-phenyl)sulfonyl)-3,4-dihydro-2H-benzo[b][1,4]oxazin-2-yl)methyl)tetrahydro-2H-pyran-4-carboxylic acid]	** (The symbol “**” indicates a value in the range of greater than 90 to 150)		* (The symbol “*” indicates a value in the range of 25 to 90)
< 500	< 500		C[C@H](C[C@H]1CN(S(=O)(=O)c2cccc(C(F)(F)F)c2)c2cc(-c3cc(F)cc(F)c3Cl)ccc2O1)C(=O)O [Compound 46B, (R)-3-((S)-6-(2-chloro-3,5-difluorophenyl)-4-((3-(trifluoro-methyl)phenyl)sulfonyl)-3,4-dihydro-2H-benzo[b][1,4]oxazin-2-yl)-2-methylpropanoic acid]	*** (The symbol “***” indicates a value in the range of greater than 150 to 200)	** (The symbol “**” indicates a value in the range of greater than 90 to 150)	
< 500	< 500		C[C@](O)(C(=O)NC[C@H]1CN(S(=O)(=O)c2cccc(C(F)(F)F)c2)c2cc(-c3cc(F)ccc3F)ccc2O1)C(F)(F)F [Compound 30W, (S)-N-(((S)-6-(2,5-difluoro-phenyl)-4-((3-(trifluoromethyl)-phenyl)sulfonyl)-3,4-dihydro-2H-benzo[b][1,4]oxazin-2-yl)methyl)-3,3,3-trifluoro-2-hydroxy-2-methylpropanamide]	**** (The symbol “****” indicates a value greater than 200)	** (The symbol “**” indicates a value in the range of greater than 90 to 150)	
< 500	< 500		O=C(O)C1CCN(C(=O)CC[C@H]2CN(S(=O)(=O)c3cccc(C(F)(F)F)c3)c3cc(-c4cccc(Cl)c4)ccc3O2)CC1 [Compound 23C, (S)-1-(3-(6-(3-chlorophenyl)-4-((3-(trifluoromethyl)phenyl)-sulfonyl)-3,4-dihydro-2H-benzo[b][1,4]oxazin-2-yl)propanoyl)piperidine-4-carboxylic acid]	*** (The symbol “***” indicates a value in the range of greater than 150 to 200)	** (The symbol “**” indicates a value in the range of greater than 90 to 150)	
< 500	< 500		Cc1ccc(F)c(-c2ccc3c(c2)N(S(=O)(=O)c2cccc(C(F)(F)F)c2)C[C@H](CCC(=O)O)O3)c1 [Compound 2BL, (S)-3-(6-(2-fluoro-5-methyl-phenyl)-4-((3-(trifluoromethyl)-phenyl)sulfonyl)-3,4-dihydro-2H-benzo[b][1,4]oxazin-2-yl)propanoic acid]	*** (The symbol “***” indicates a value in the range of greater than 150 to 200)	** (The symbol “**” indicates a value in the range of greater than 90 to 150)	
< 500	< 500		CN(CCC(=O)O)C(=O)NCC[C@H]1CN(S(=O)(=O)c2cccc(C(F)(F)F)c2)c2cc(-c3cc(F)ccc3F)ccc2O1 [Compound 23Y, (S)-3-(3-(2-(6-(2,5-difluoro-phenyl)-4-((3-(trifluoromethyl)-phenyl)sulfonyl)-3,4-dihydro-2H-benzo[b][1,4]oxazin-2-yl)ethyl)-1-methylureido)propanoic acid]	*** (The symbol “***” indicates a value in the range of greater than 150 to 200)	** (The symbol “**” indicates a value in the range of greater than 90 to 150)	
< 500	500 to 5000		CNc1cccc(-c2ccc3c(c2)N(S(=O)(=O)c2cccc(C(F)(F)F)c2)C[C@H](CCC(=O)O)O3)n1 [Compound 4AM, (S)-3-(6-(6-(methylamino)-pyridin-2-yl)-4-((3-(trifluoromethyl)phenyl)-sulfonyl)-3,4-dihydro-2H-benzo[b][1,4]oxazin-2-yl)propanoic acid]	**** (The symbol “****” indicates a value greater than 200)	** (The symbol “**” indicates a value in the range of greater than 90 to 150)	
< 500	< 500		O=C(NC[C@H]1CN(S(=O)(=O)c2cccc(C(F)(F)F)c2)c2cc(-c3cc(F)ccc3F)ccc2O1)c1cocn1 [Compound 30AJ, (S)-N-((6-(2,5-difluorophenyl)-4-((3-(trifluoromethyl)phenyl)-sulfonyl)-3,4-dihydro-2H-benzo[b][1,4]oxazin-2-yl)methyl)oxazole-4-carboxamide]	**** (The symbol “****” indicates a value greater than 200)	** (The symbol “**” indicates a value in the range of greater than 90 to 150)	
< 500	< 500		Cn1cc(C(=O)NC[C@H]2CN(S(=O)(=O)c3cccc(C(F)(F)F)c3)c3cc(-c4cc(F)ccc4F)ccc3O2)cn1 [Compound 30AH, (S)-N-((6-(2,5-difluorophenyl)-4-((3-(trifluoromethyl)phenyl)-sulfonyl)-3,4-dihydro-2H-benzo[b][1,4]oxazin-2-yl)methyl)-1-methyl-1H-pyrazole-4-carboxamide]	*** (The symbol “***” indicates a value in the range of greater than 150 to 200)	** (The symbol “**” indicates a value in the range of greater than 90 to 150)	
500 to 5000		> 10000	Cn1cc(C(=O)NC[C@H]2CN(S(=O)(=O)c3cccc(C(F)(F)F)c3)c3cc(-c4cccc(C(F)(F)F)n4)ccc3O2)c(C(F)(F)F)n1 [Compound 30BN, (S)-1-methyl-3-(trifluoro-methyl)-N-((4-((3-(trifluoro-methyl)phenyl)sulfonyl)-6-(6-(trifluoromethyl)pyridin-2-yl)-3,4-dihydro-2H-benzo[b][1,4]-oxazin-2-yl)methyl)-1H-pyrazole-4-carboxamide]	*** (The symbol “***” indicates a value in the range of greater than 150 to 200)		* (The symbol “*” indicates a value in the range of 25 to 90)
< 500	< 500		COc1cc(F)cc(-c2ccc3c(c2)N(S(=O)(=O)c2cccc(C(F)(F)F)c2)C[C@H](CCc2n[nH]c(=O)o2)O3)c1F [Compound 28G, (S)-5-(2-(6-(2,5-difluoro-3-methoxyphenyl)-4-((3-(trifluoromethyl)phenyl)sulfonyl)-3,4-dihydro-2H-benzo[b][1,4]-oxazin-2-yl)ethyl)-1,3,4-oxadiazol-2(3H)-one]	**** (The symbol “****” indicates a value greater than 200)	** (The symbol “**” indicates a value in the range of greater than 90 to 150)	
< 500	500 to 5000		O=C(O)CC[C@H]1CN(S(=O)(=O)c2cccc(C(F)(F)F)c2)c2cc(-c3cccc4ccnn34)ccc2O1 [Compound 4V, (S)-3-(6-(pyrazolo[1,5-a]-pyridin-7-yl)-4-((3-(trifluoro-methyl)-phenyl)sulfonyl)-3,4-dihydro-2H-benzo[b][1,4]-oxazin-2-yl)propanoic acid]	**** (The symbol “****” indicates a value greater than 200)	** (The symbol “**” indicates a value in the range of greater than 90 to 150)	
500 to 5000		500 to 5000	CC(=O)N[C@H]1C[C@@](C[C@H]2CN(S(=O)(=O)c3cccc(C(F)(F)F)c3)c3cc(-c4cc(F)ccc4F)ccc3O2)(C(=O)O)C1 [Compound 89A, (1s,3R)-3-acetamido-1-(((S)-6-(2,5-difluorophenyl)-4-((3-(trifluoro-methyl)phenyl)sulfonyl)-3,4-dihydro-2H-benzo[b][1,4]oxazin-2-yl)methyl)cyclobutane-1-carboxylic acid]	*** (The symbol “***” indicates a value in the range of greater than 150 to 200)		** (The symbol “**” indicates a value in the range of greater than 90 to 150)
